Assay results from ChEMBL document CHEMBL2176881, “Development of N-[4-[6-(isopropylamino)pyrimidin-4-yl]-1,3-thiazol-2-yl]-N-methyl-4-[11C]methylbenzamide for positron emission tomography imaging of metabotropic glutamate 1 receptor in monkey brain” (J Med Chem, 2012).

What was measured:
[1] = Metabolic stability in Sprague-Dawley plasma assessed as unchanged drug level at 37 MBq/0.1 mL, iv after 60 mins; format: ADME, organism-based; conditions: rat, read-out: Stability
Lung [2] = assay: Biodistribution in ddY mouse lung at 4.8 MBq/0.1 mL after 1 min by gamma counting; format: ADME, organism-based; conditions: in vivo
Liver [3] = assay: Biodistribution in ddY mouse liver at 4.8 MBq/0.1 mL after 30 mins by gamma counting; format: ADME, organism-based; conditions: in vivo, 0.5 h
Lung [4] = assay: Biodistribution in ddY mouse lung at 4.8 MBq/0.1 mL after 15 mins by gamma counting; format: ADME, organism-based; conditions: in vivo, 0.25 h
[5] = Drug uptake in monkey cingulate cortex at 185 to 220 MBq, iv after 10 to 60 mins by PET analysis; format: ADME, organism-based, Macaca mulatta; conditions: rhesus monkey, in vivo
Mus musculus [6] = organism: Mus musculus; assay: Biodistribution in ddY mouse large intestine at 4.8 MBq/0.1 mL after 90 mins by gamma counting; format: ADME, organism-based; conditions: in vivo, 1.5 h
Heart [7] = assay: Biodistribution in ddY mouse heart at 4.8 MBq/0.1 mL after 30 mins by gamma counting; format: ADME, organism-based; conditions: in vivo, 0.5 h
Muscle tissue [8] = assay: Biodistribution in ddY mouse muscle at 4.8 MBq/0.1 mL after 90 mins by gamma counting; format: ADME, organism-based; conditions: in vivo, 1.5 h
Brain [9] = assay: Biodistribution in ddY mouse brain at 4.8 MBq/0.1 mL after 1 min by gamma counting; format: ADME, organism-based; conditions: in vivo
Blood [10] = assay: Biodistribution in ddY mouse blood at 4.8 MBq/0.1 mL after 5 mins by gamma counting; format: ADME, organism-based; conditions: in vivo
Lung [11] = assay: Biodistribution in ddY mouse lung at 4.8 MBq/0.1 mL after 30 mins by gamma counting; format: ADME, organism-based; conditions: in vivo, 0.5 h
Mus musculus [12] = organism: Mus musculus; assay: Biodistribution in ddY mouse large intestine at 4.8 MBq/0.1 mL after 15 mins by gamma counting; format: ADME, organism-based; conditions: in vivo, 0.25 h
[13] = Metabolic stability in monkey plasma assessed as unchanged drug level at 185 MBq/0.1 mL, iv after 5 mins; format: ADME, organism-based, Macaca mulatta; conditions: rhesus monkey, read-out: Stability
Liver [14] = assay: Biodistribution in ddY mouse liver at 4.8 MBq/0.1 mL after 90 mins by gamma counting; format: ADME, organism-based; conditions: in vivo, 1.5 h
Muscle tissue [15] = assay: Biodistribution in ddY mouse muscle at 4.8 MBq/0.1 mL after 15 mins by gamma counting; format: ADME, organism-based; conditions: in vivo, 0.25 h
Liver [16] = assay: Biodistribution in ddY mouse liver at 4.8 MBq/0.1 mL after 15 mins by gamma counting; format: ADME, organism-based; conditions: in vivo, 0.25 h
Lung [17] = assay: Biodistribution in ddY mouse lung at 4.8 MBq/0.1 mL after 60 mins by gamma counting; format: ADME, organism-based; conditions: in vivo, 1 h
[18] = Metabolic stability in Sprague-Dawley plasma assessed as unchanged drug level at 37 MBq/0.1 mL, iv after 5 mins; format: ADME, organism-based; conditions: rat, read-out: Stability
[19] = Metabolic stability in monkey plasma assessed as unchanged drug level at 185 MBq/0.1 mL, iv after 60 mins; format: ADME, organism-based, Macaca mulatta; conditions: rhesus monkey, read-out: Stability
Blood [20] = assay: Biodistribution in ddY mouse blood at 4.8 MBq/0.1 mL after 60 mins by gamma counting; format: ADME, organism-based; conditions: in vivo, 1 h
[21] = Drug uptake in monkey cerebellum at 185 to 220 MBq, iv after 20 mins by PET analysis; format: ADME, organism-based, Macaca mulatta; conditions: rhesus monkey, in vivo
Spleen [22] = assay: Biodistribution in ddY mouse spleen at 4.8 MBq/0.1 mL after 15 mins by gamma counting; format: ADME, organism-based; conditions: in vivo, 0.25 h
Lung [23] = assay: Biodistribution in ddY mouse lung at 4.8 MBq/0.1 mL after 90 mins by gamma counting; format: ADME, organism-based; conditions: in vivo, 1.5 h
[24] = Drug uptake in monkey cerebellum at 185 to 220 MBq, iv after 10 to 60 mins by PET analysis; format: ADME, organism-based, Macaca mulatta; conditions: rhesus monkey, in vivo
Mus musculus [25] = organism: Mus musculus; assay: Biodistribution in ddY mouse small intestine at 4.8 MBq/0.1 mL after 1 min by gamma counting; format: ADME, organism-based; conditions: in vivo
Mus musculus [26] = organism: Mus musculus; assay: Biodistribution in ddY mouse testis at 4.8 MBq/0.1 mL after 15 mins by gamma counting; format: ADME, organism-based; conditions: in vivo, 0.25 h
Hippocampus = assay: Drug uptake in monkey hippocampus at 185 to 220 MBq, iv after 10 mins by PET analysis; format: ADME, organism-based, Macaca mulatta; conditions: rhesus monkey, in vivo
[27] = Metabolic stability in Sprague-Dawley brain assessed as unchanged drug level at 37 MBq/0.1 mL, iv after 60 mins; format: ADME, organism-based; conditions: rat, read-out: Stability
Pancreas [28] = assay: Biodistribution in ddY mouse pancreas at 4.8 MBq/0.1 mL after 15 mins by gamma countingeas; format: ADME, organism-based; conditions: in vivo, 0.25 h
Liver [29] = assay: Biodistribution in ddY mouse liver at 4.8 MBq/0.1 mL after 5 mins by gamma counting; format: ADME, organism-based; conditions: in vivo
[30] = Metabolic stability in monkey plasma assessed as unchanged drug level at 185 MBq/0.1 mL, iv after 15 mins; format: ADME, organism-based, Macaca mulatta; conditions: rhesus monkey, read-out: Stability
Blood [31] = assay: Biodistribution in ddY mouse blood at 4.8 MBq/0.1 mL after 90 mins by gamma counting; format: ADME, organism-based; conditions: in vivo, 1.5 h
Kidney [32] = assay: Biodistribution in ddY mouse kidney at 4.8 MBq/0.1 mL after 15 mins by gamma counting; format: ADME, organism-based; conditions: in vivo, 0.25 h
Spleen [33] = assay: Biodistribution in ddY mouse spleen at 4.8 MBq/0.1 mL after 1 min by gamma counting; format: ADME, organism-based; conditions: in vivo
Brain [34] = assay: Biodistribution in ddY mouse brain at 4.8 MBq/0.1 mL after 15 mins by gamma counting; format: ADME, organism-based; conditions: in vivo, 0.25 h
[35] = Metabolic stability in Sprague-Dawley brain assessed as unchanged drug level at 37 MBq/0.1 mL, iv after 30 mins; format: ADME, organism-based; conditions: rat, read-out: Stability
Kidney [36] = assay: Biodistribution in ddY mouse kidney at 4.8 MBq/0.1 mL after 1 min by gamma counting; format: ADME, organism-based; conditions: in vivo
Heart [37] = assay: Biodistribution in ddY mouse heart at 4.8 MBq/0.1 mL after 1 min by gamma counting; format: ADME, organism-based; conditions: in vivo
Mus musculus [38] = organism: Mus musculus; assay: Biodistribution in ddY mouse large intestine at 4.8 MBq/0.1 mL after 30 mins by gamma counting; format: ADME, organism-based; conditions: in vivo, 0.5 h
Mus musculus [39] = organism: Mus musculus; assay: Biodistribution in ddY mouse testis at 4.8 MBq/0.1 mL after 30 mins by gamma counting; format: ADME, organism-based; conditions: in vivo, 0.5 h
[40] = Drug uptake in monkey caudate at 185 to 220 MBq, iv after 10 mins by PET analysis; format: ADME, organism-based, Macaca mulatta, Caudate nucleus; conditions: rhesus monkey, in vivo
[41] = Metabolic stability in Sprague-Dawley brain assessed as unchanged drug level at 37 MBq/0.1 mL, iv after 5 mins; format: ADME, organism-based; conditions: rat, read-out: Stability
[42] = Drug uptake in monkey caudate assessed as distribution volume ratio at 185 to 220 MBq, iv after 10 to 90 mins by PET analysis; format: ADME, organism-based, Macaca mulatta, Caudate nucleus; conditions: rhesus monkey, in vivo
Pancreas [43] = assay: Biodistribution in ddY mouse pancreas at 4.8 MBq/0.1 mL after 60 mins by gamma countingeas; format: ADME, organism-based; conditions: in vivo, 1 h
[44] = Metabolic stability in Sprague-Dawley plasma assessed as unchanged drug level at 37 MBq/0.1 mL, iv after 30 mins; format: ADME, organism-based; conditions: rat, read-out: Stability
[45] = Metabolic stability in Sprague-Dawley plasma assessed as unchanged drug level at 37 MBq/0.1 mL, iv after 15 mins; format: ADME, organism-based; conditions: rat, read-out: Stability
Mus musculus [46] = organism: Mus musculus; assay: Biodistribution in ddY mouse small intestine at 4.8 MBq/0.1 mL after 5 mins by gamma counting; format: ADME, organism-based; conditions: in vivo
[47] = Drug uptake in monkey thalamus assessed as distribution volume ratio at 185 to 220 MBq, iv after 10 to 90 mins by PET analysis; format: ADME, organism-based, Macaca mulatta; conditions: rhesus monkey, in vivo
Mus musculus [48] = organism: Mus musculus; assay: Biodistribution in ddY mouse small intestine at 4.8 MBq/0.1 mL after 60 mins by gamma counting; format: ADME, organism-based; conditions: in vivo, 1 h
Mus musculus [49] = organism: Mus musculus; assay: Biodistribution in ddY mouse testis at 4.8 MBq/0.1 mL after 1 min by gamma counting; format: ADME, organism-based; conditions: in vivo

remaining at 1 h [1]: 33.9%
Drug uptake (Lung [2]): 5.48 % ID/g
Drug uptake (Liver [3]): 1.43 % ID/g
Drug uptake (Lung [4]): 0.86 % ID/g
Drug uptake [5]: Active
Drug uptake (Mus musculus [6]): 7.02 % ID/g
Drug uptake (Heart [7]): 0.09 % ID/g
Drug uptake (Muscle tissue [8]): 0.17 % ID/g
Drug uptake (Brain [9]): 2.19 % ID/g
Drug uptake (Blood [10]): 1.27 % ID/g
Drug uptake (Lung [11]): 0.31 % ID/g
Drug uptake (Mus musculus [12]): 1.2 % ID/g
remaining at 5 min [13]: 70.2%
Drug uptake (Liver [14]): 0.3 % ID/g
Drug uptake (Muscle tissue [15]): 0.23 % ID/g
Drug uptake (Liver [16]): 4.89 % ID/g
Drug uptake (Lung [17]): 0.2 % ID/g
remaining at 5 min [18]: 67.9%
remaining at 1 h [19]: 28.4%
Drug uptake (Blood [20]): 0.05 % ID/g
SUV [21]: 1.2
Drug uptake (Spleen [22]): 0.29 % ID/g
Drug uptake (Lung [23]): 0.12 % ID/g
Drug uptake [24]: Active
Drug uptake (Mus musculus [25]): 10.07 % ID/g
Drug uptake (Mus musculus [26]): 0.41 % ID/g
Drug uptake (Hippocampus): Active
remaining at 1 h [27]: 98.2%
Drug uptake (Pancreas [28]): 0.3 % ID/g
Drug uptake (Liver [29]): 11.38 % ID/g
remaining at 0.25 h [30]: 43.1%
Drug uptake (Blood [31]): 0.02 % ID/g
Drug uptake (Kidney [32]): 1.32 % ID/g
Drug uptake (Spleen [33]): 1.74 % ID/g
Drug uptake (Brain [34]): 1.99 % ID/g
remaining at 0.5 h [35]: 97%
Drug uptake (Kidney [36]): 11.12 % ID/g
Drug uptake (Heart [37]): 4.93 % ID/g
Drug uptake (Mus musculus [38]): 2.32 % ID/g
Drug uptake (Mus musculus [39]): 0.22 % ID/g
Drug uptake [40]: Active
remaining at 5 min [41]: 94%
Ratio [42]: 1.5
Drug uptake (Pancreas [43]): 0.03 % ID/g
remaining at 0.5 h [44]: 39%
remaining at 0.25 h [45]: 47.6%
Drug uptake (Mus musculus [46]): 66.76 % ID/g
Ratio [47]: 2
Drug uptake (Mus musculus [48]): 17.46 % ID/g
Drug uptake (Mus musculus [49]): 1.07 % ID/g
Structure (SMILES): CC(C)Nc1cc(-c2csc(N(C)C(=O)c3ccc([14CH3])cc3)n2)ncn1
